Test results as given in PubChem BioAssay (NCI).
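Growth conditions: 96-well plates. Treatment: test compound, 48 hours, 5 concentrations. Analysis: linear interpolation between bracketing concentrations; unreached endpoints set to highest concentration. GI50: concentration for 50% inhibition of growth. TGI: concentration producing complete growth inhibition.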

Key:
Test in all cases: inhibition of tumour cell growth, NCI panel, 48 h
SN12C renal = test system: SN12C renal
SK-MEL-2 melanoma = test system: SK-MEL-2 melanoma
HOP-62 NSCLC = test system: HOP-62 NSCLC
RXF 393 renal = test system: RXF 393 renal
HT29 colon = test system: HT29 colon
KM12 colon = test system: KM12 colon
HCT-116 colon = test system: HCT-116 colon
CCRF-CEM leukemia = test system: CCRF-CEM leukemia
CAKI-1 renal = test system: CAKI-1 renal
RPMI-8226 leukemia = test system: RPMI-8226 leukemia

Compound	GI50 (SN12C renal) [µM]	TGI (SN12C renal) [µM]	GI50 (SK-MEL-2 melanoma) [µM]	TGI (SK-MEL-2 melanoma) [µM]	GI50 (HOP-62 NSCLC) [µM]	TGI (HOP-62 NSCLC) [µM]	GI50 (RXF 393 renal) [µM]	TGI (RXF 393 renal) [µM]	GI50 (HT29 colon) [µM]	TGI (HT29 colon) [µM]	GI50 (KM12 colon) [µM]	TGI (KM12 colon) [µM]	GI50 (HCT-116 colon) [µM]	TGI (HCT-116 colon) [µM]	GI50 (CCRF-CEM leukemia) [µM]	GI50 (CAKI-1 renal) [µM]	TGI (CAKI-1 renal) [µM]	GI50 (RPMI-8226 leukemia) [µM]	TGI (RPMI-8226 leukemia) [µM]	TGI (CCRF-CEM leukemia) [µM]
COc1cc2c(=O)n(CCN)c3c4cc5c(cc4ccc3c2cc1OC)OCO5	0.723	2.32	3.69	16.5	0.444	2.27	1.02	2.56	0.222	1.65	0.913	2.47	0.285	1.31	0.182	0.382	5.94	0.356	2.37	–
CC[C@]1(O)C(=O)OCc2c1cc1n(c2=O)Cc2cc3c(N)cccc3nc2-1	–	> 100	–	> 100	–	> 100	–	> 100	–	> 100	–	> 100	–	> 100	–	–	> 100	–	> 100	> 100
Cc1cccc(-n2c(=S)[nH]c3c(sc(=O)n3-c3ccccc3C)c2=O)c1	–	> 100	–	> 100	–	> 100	–	> 100	–	> 100	–	> 100	–	> 100	–	–	> 100	–	> 100	> 100
Cc1[nH]nc(C(=O)n2nc(N)c3ccccc32)c1[N+](=O)[O-]	> 100	> 100	> 100	> 100	> 100	> 100	> 100	> 100	> 100	> 100	> 100	> 100	> 100	> 100	32.2	> 100	> 100	> 100	> 100	> 100
Cc1cc(C)c(C(=O)c2no[n+]([O-])c2C(=O)c2c(C)cc(C)c(Br)c2C)c(C)c1Br	–	33.4	–	30.9	–	33.4	–	19.9	–	27.4	–	26.4	–	21.9	–	–	44.8	–	38.9	8.88
COc1ccc2cc(-c3c(-c4ccncc4)nc(-c4ccc(S(C)(=O)=O)cc4C)n3C)ccc2c1	8.22	> 25	6.78	> 25	8.81	> 23.9	3.99	20.7	8.37	> 25	8.05	> 25	7.62	> 25	8.46	8.73	> 25	9.89	> 25	> 25
O=C1c2cc(Cl)ccc2-c2c1c1ccc([N+](=O)[O-])cc1c(=O)n2CCCBr	2.5	8.89	82.6	> 100	2.46	23	17.6	> 100	12.5	> 100	20.8	> 100	3.48	> 100	0.625	1.72	19.3	3.66	96	> 100
